Laboratory results published in US5723461A, “Quinoxalines, a process for their preparation and their use” (Hoechst Aktiengesellschaft, priority 1994, dated 1998).
In brackets after ≈: the same amount, converted by molar mass.

Experiments:
[1] = tested on: HIV; experiment: Testing of preparations against HIV in cell culture (T-cell culture assay); type: cell-based; details: Human immunodeficiency virus 1, 72 h, HIV-infected lymphocytes, 3 days at 37° C., lowest concentration at which no giant cells occurred, read-out: MIC EC50
Experimental: Testing of preparations against HIV in cell culture
Description of the method:
Complete medium additionally contains 20% fetal calf serum and 40 IU/ml recombinant interleukin 2.
Lymphocytes, which have been isolated from fresh donor blood by means of Ficoll® gradient centrifugation, are cultured, for 36 hours at 37° C. and under 5% CO2, in complete medium which additionally contains […] phytohemagglutinin (Wellcome). After 10% DMSO has been added, the cells are frozen at a cell density of 5×10^6 and stored in liquid nitrogen. For the experiment, the cells are thawed, washed in the RPMI medium and cultured for 3 to 4 days in the complete medium.
The test preparations were dissolved in DMSO at a concentration of 16.7 mg/ml, and these solutions were diluted with complete medium to a concentration of 1 mg/ml. 0.4 ml of medium was initially introduced into 24-well multiwell plates. After 0.1 ml of the dissolved preparation had been added to the upper row of the plate, a geometric dilution series was produced by transferring 0.1 ml on each occasion. Preparation-free controls contained 0.4 ml of complete medium containing 0.5% DMSO.
Lymphocyte cultures having a cell count of 5×10^5 cells/ml were infected by adding a 1/50 volume of the supernatant from HIV-infected lymphocyte cultures. The titer of these culture supernatants was determined by end-point dilution to be 1-5×10^6 infectious units/ml. After having been incubated at 37° C. for 30 min, the infected lymphocytes were centrifuged off and taken up once again in the same volume of medium. 0.6 ml of this cell suspension was added to each of the wells in the test plate. The assay mixtures were incubated at 37° C. for 3 days.
The infected cell cultures were examined under the microscope for the presence of giant cells, which are indicative of active viral replication in the culture. The lowest preparation concentration at which no giant cells occurred was determined and taken to be the inhibitory concentration against HIV. As a control, the supernatants from the culture plates were assayed for the presence of HIV antigen using an HIV antigen test in accordance with the manufacturer's (Organon) instructions.

[2] = biological target: T1, HIV reverse transcriptase (Human immunodeficiency virus type 1 group M subtype B, UniProt P04585); experiment: Inhibition of HIV reverse transcriptase (scintillation proximity assay); type: biochemical; details: Reverse transcriptase assay (SPA), 60 min, 37° C.
T1 construct: purchased HT Biotechnology Ltd., Cambridge, UK; host or cells: E. coli
Experimental: Examination of the substances for their ability to inhibit HIV reverse transcriptase
The activity of the reverse transcriptase (RT) was determined using a scintillation proximity assay (SPA).
The reagent kit for the RT SPA was obtained from Amersham/Buchler (Braunschweig). The RT enzyme (derived from HIV and cloned in E. coli) was obtained from HT Biotechnology Ltd., Cambridge, UK.
The test was carried out in accordance with the manufacturer's (Amersham) methods manual, with the following modifications:
Bovine serum albumin was added to the assay buffer to a final concentration of 0.5 mg/ml.
The test was carried out in Eppendorf tubes using an assay mixture volume of 100 μl.
The manufacturer's RT concentrate (5000 U/ml) was diluted to an activity of 15 U per ml using 20 mM tris-HCl buffer, pH 7.2, 30% glycerol.
The assay mixtures were incubated for 60 min (37° C.).
After the reaction had been stopped and "developed" with the bead suspension, 130 μl of assay mixture were transferred into 4.5 ml of 10 mM tris-HCl buffer, pH 7.4, 0.15M NaCl and the tritium activity was measured in a β-counter.
In order to carry out a preliminary test of their inhibitory activity, the substances were dissolved in DMSO (stock solution, c=1 mg/ml) and tested when diluted 10^-1, 10^-2, 10^-3 etc. in DMSO.
In order to determine IC50 values, the stock solutions of inhibitor were further diluted in 50 mM tris-HCl buffer, pH 8, and tested at suitable concentrations.
The concentration associated with 50% inhibition of the enzyme was ascertained from the plot of RT activity against log Cinh.

Compound | EC50 [1] | IC50 [2]
CC[C@H]1C(=S)Nc2ccc(F)cc2N1C(=O)OC(C)C [Example 95] | 2 ng/mL (≈ 0.00675 µM) | 
C=CCOC(=O)N1c2cc(Cl)ccc2NC(=S)[C@@H]1C [Example 140c] | 40 ng/mL (≈ 0.135 µM) | 371 nM
CCC(C)COC(=O)N1c2cc(OC)ccc2NC(=S)[C@@H]1CSC (stereo partly drawn) [Example 125] |  | 40.7 nM
CSC[C@H]1C(=O)Nc2ccc(F)cc2N1C(=O)OC(C)C [Example 42] | < 8 ng/mL | 
C=C(C)OC(=O)N1c2cc(Cl)ccc2NC(=S)[C@@H]1C [Example 140d] | 10 ng/mL (≈ 0.0337 µM) | 91 nM
CCC(C)OC(=O)N1c2cc(F)ccc2NC(=S)[C@@H]1CC (stereo partly drawn) [Example 140k] | 8 ng/mL (≈ 0.0258 µM) | 51.5 nM
CCC[C@H]1C(=O)Nc2ccc(OC)cc2N1C(=O)OC(C)C [Example 44] | < 80 ng/mL | 
CCOc1ccc2c(c1)N(C(=O)OC(C)C)[C@@H](CSC)C(=O)N2 [Example 52] | < 8 ng/mL | 29.5 to 295 nM
COC[C@H]1C(=O)Nc2ccc(F)cc2N1C(=O)OC(C)C [Example 84o] | 80 ng/mL (≈ 0.27 µM) | 
CCCC[C@H]1C(=S)Nc2ccccc2N1C(=O)OC(C)C [Example 88] | < 40 ng/mL | 
CSC[C@H]1C(=O)Nc2ccc(Cl)cc2N1C(=O)OC(C)C [Example 38] | < 1 ng/mL | 15.2 nM
CC[C@H]1C(=O)Nc2ccc(OC)cc2N1C(=O)OC(C)C [Example 43] | < 1 ng/mL | 
CCCOc1ccc2c(c1)N(C(=O)OC(C)C)[C@@H](CSC)C(=O)N2 [Example 54] | 40 ng/mL (≈ 0.113 µM) | 
C=C(C)OC(=O)N1c2cc(Cl)ccc2NC(=S)[C@@H]1CSC [Example 115] | 1.6 ng/mL (≈ 0.00467 µM) | 29.2 nM
CC[C@H]1C(=S)Nc2ccc(Cl)cc2N1C(=O)OC(C)C [Example 91] | 2 ng/mL (≈ 0.00639 µM) | 12.8 nM
CCC(C)OC(=O)N1c2cc(F)ccc2NC(=O)[C@@H]1CC (stereo partly drawn) [Example 84j] | < 80 ng/mL | 296 nM
C=CCOC(=O)N1c2cc(Cl)ccc2NC(=O)[C@@H]1CC [Example 58] | 10 ng/mL (≈ 0.0339 µM) | 33.9 to 339 nM
CC[C@H]1C(=O)Nc2ccc(Cl)cc2N1C(=O)OC(C)C [Example 35] | < 80 ng/mL | 33.7 nM
CCC[C@H]1C(=S)Nc2ccc(F)cc2N1C(=O)OC(C)C [Example 96] | 80 ng/mL (≈ 0.258 µM) | 51.5 nM
C=C(C)OC(=O)N1c2cc(Cl)ccc2NC(=S)[C@@H]1CC [Example 113] | 0.8 ng/mL (≈ 0.00257 µM) | 19.3 nM
CC[C@H]1C(=S)Nc2ccc(OC)cc2N1C(=O)OC(C)C [Example 99] | < 1 ng/mL | 35.7 nM
CCC[C@H]1C(=O)Nc2ccccc2N1C(=O)OC(C)C [Example 31] | 50 ng/mL (≈ 0.181 µM) | 
C=C(C)OC(=O)N1c2cc(Cl)ccc2NC(=O)[C@@H]1CSC [Example 59] | 20 ng/mL (≈ 0.0612 µM) | 55.1 nM
CCCOC(=O)N1c2cc(Cl)ccc2NC(=O)[C@@H]1CSC [Example 60] | 40 ng/mL (≈ 0.122 µM) | 30.4 nM
C=C(C)OC(=O)N1c2cc(Cl)ccc2NC(=O)[C@@H]1CC [Example 57] | 1 ng/mL (≈ 0.00339 µM) | 33.9 to 339 nM
CC[C@H]1C(=S)Nc2ccc(O)cc2N1C(=O)OC(C)C [Example 140b] | < 80 ng/mL | 238 nM

Compound | EC50 [1] | IC50 [2]
CC[C@H]1C(=S)Nc2ccc(F)cc2N1C(=O)OC [Example 140h] | 10 ng/mL (≈ 0.0373 µM) | 29.8 nM
CCOC(=O)N1c2cc(F)ccc2NC(=S)[C@@H]1CC [Example 134] | 8 ng/mL (≈ 0.0283 µM) | 10.6 nM
CCC[C@H]1C(=S)Nc2ccccc2N1C(=O)OC(C)C [Example 87] | 4 ng/mL (≈ 0.0137 µM) | 92.3 nM
CCC(C)OC(=O)N1c2cc(OC)ccc2NC(=S)[C@@H]1CSC (stereo partly drawn) [Example 140f] | 8 ng/mL (≈ 0.0226 µM) | 53.6 nM
CCC[C@H]1C(=O)Nc2ccc(F)cc2N1C(=O)OC(C)C [Example 40] | 80 ng/mL (≈ 0.272 µM) | 34 to 340 nM
COc1ccc2c(c1)N(C(=O)OCC(C)C)[C@@H](CSC)C(=S)N2 [Example 140g] | 40 ng/mL (≈ 0.113 µM) | 48 nM
CC[C@H]1C(=O)Nc2ccccc2N1C(=O)OC(C)C [Example 30] | < 40 ng/mL | 
CC[C@H]1C(=S)Nc2ccccc2N1C(=O)OC(C)C [Example 86] | 1 ng/mL (≈ 0.00359 µM) | 39.5 nM
CCCCOC(=O)N1c2cc(F)ccc2NC(=S)[C@@H]1CC [Example 140i] | 10 ng/mL (≈ 0.0322 µM) | 70.9 nM
C=C(C)OC(=O)N1c2cc(F)ccc2NC(=O)[C@@H]1CC [Example 62] | 80 ng/mL (≈ 0.287 µM) | 331 nM
CC(C)OC(=O)N1c2cc(F)ccc2NC(=O)[C@@H]1C [Example 84i] | 80 ng/mL (≈ 0.3 µM) | 638 nM
COc1ccc2c(c1)N(C(=O)OC(C)C)[C@@H](CSC)C(=O)N2 [Example 29, S-4-Isopropoxycarbonyl-6-methoxy-3-(methylthiomethyl)-3,4-dihydroquinoxalin-2(1H)-one] | < 8 ng/mL | 30.8 to 308 nM
COC[C@H]1C(=S)Nc2ccc(F)cc2N1C(=O)OC(C)C [Example 140l] | 8 ng/mL (≈ 0.0256 µM) | 70.4 nM
CSC[C@H]1C(=O)Nc2ccccc2N1C(=O)OC(C)C [Example 34] | < 1 ng/mL | 34 to 340 nM
CCOC(=O)N1c2cc(Cl)ccc2NC(=O)[C@@H]1CSC [Example 61] | 2 ng/mL (≈ 0.00635 µM) | 31.8 to 318 nM
COC[C@H]1C(=S)Nc2ccc(OC)cc2N1C(=O)OC(C)C [Example 104] | 8 ng/mL (≈ 0.0247 µM) | 108 nM
CCCCOC(=O)N1c2cc(F)ccc2NC(=O)[C@@H]1CC [Example 84l] | 80 ng/mL (≈ 0.272 µM) | 510 nM
CSC[C@H]1C(=S)Nc2ccc(Cl)cc2N1C(=O)OC(C)C [Example 94] | < 8 ng/mL | 43.5 nM
CCOc1ccc2c(c1)N(C(=O)OC(C)C)[C@@H](CSC)C(=S)N2 [Example 108] | < 5 ng/mL | 22.6 nM
CC[C@H]1C(=S)Nc2ccc(F)cc2N1C(=O)OCC(C)C [Example 140j] | 10 ng/mL (≈ 0.0322 µM) | 48.3 nM
C=C(C)OC(=O)N1c2cc(OC)ccc2NC(=O)[C@@H]1CSC [Example 68] | 8 ng/mL (≈ 0.0248 µM) | 49.6 nM
CCC(C)OC(=O)N1c2cc(OC)ccc2NC(=O)[C@@H]1CSC (stereo partly drawn) [Example 84g] |  | 349 nM
CCCOc1ccc2c(c1)N(C(=O)OC(C)C)[C@@H](CSC)C(=S)N2 [Example 110] | 4 ng/mL (≈ 0.0109 µM) | 27.1 to 271 nM
CC[C@H]1C(=O)Nc2ccc(F)cc2N1C(=O)OC(C)C [Example 39] | 8 ng/mL (≈ 0.0285 µM) | 71.4 nM
C=C(C)OC(=O)N1c2cc(OC)ccc2NC(=S)[C@@H]1CSC [Example 124] | < 8 ng/mL | 
